Measured values as given in patent US6472348B1, “Pyridone derivatives and herbicides” (Kumiai Chemical Industry Co., Ltd., priority 1996, dated 2002).

What was measured:
Digitaria ciliaris (Di) = assay: Test Example 2: herbicidal effects by upland field soil treatment; format: in vivo; details: 100 g of the active ingredient per 10 ares;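 note: grade of growth control; 5 = at least 90%; 4 = 70 to 90%; 3 = 50 to 70%; 2 = 30 to 50%; 1 = 10 to 30%; 0 = under 10%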
Text: (§1) (Test on Herbicidal Effects by Upland Field Soil Treatment)

slender amaranth (Am) [1] = assay: as above; format: in vivo; details: 100 g of the active ingredient per 10 ares
Text: as §1

[2] = tested on: common lambsquarters (Ch); assay: as above; format: in vivo; details: 100 g of the active ingredient per 10 ares
Text: as §1

pale smartweed (Po) [3] = assay: as above; format: in vivo; details: 100 g of the active ingredient per 10 ares
Text: as §1

rice flatsedge (Ci) [4] = assay: as above; format: in vivo; details: 100 g of the active ingredient per 10 ares
Text: as §1

barnyardgrass (Ec) [5] = assay: as above; format: in vivo; details: 100 g of the active ingredient per 10 ares
Text: as §1

soybean (Gl) = assay: Test Example 6: crop plant selectivity by upland field soil treatment (soybean), phytotoxicity; format: in vivo; parameters: scale not given here; details: dose 6.3 g ai/10a, 21st day after application
Procedure: (§2) (Test on Crop Plant Selectivity by Upland Field Soil Treatment)
(§3) In a plastic pot (surface area: 600 cm^2) filled with sand, soybean (Gl), Diaitaria ciliaris (Di), green foxtail (Se), Johnsongrass (So), pale smartweed (Po), slender amaranth (Am), common lambsquarters (Ch) and China jute (Ab) were sown and covered with soil. […] The plants were then cultured in a green house, and the evaluation of the herbicidal effects and phytotoxicity was conducted on the 21st day after the application in accordance with the standards as identified in Table 47. Symbol—represents “not tested”.

wheat (Tr) [6] = assay: Test Example 5: crop plant selectivity by upland field soil treatment (wheat), phytotoxicity; format: in vivo; parameters: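 grade of crop injury; 5 = at least 90%; 4 = 70 to 90%; 3 = 50 to 70%; 2 = 30 to 50%; 1 = 10 to 30%; 0 = under 10%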; details: dose 6.3 g ai/10a, 21st day after application
Procedure: as §2
(§4) In a plastic pot (surface area: 600 cm^2) filled with sand, wheat (Tr), Diaitaria ciliaris (Di), green foxtail (Se), pale smartweed (Po), slender amaranth (Am), common lambsquarters (Ch) and China jute (Ab) were sown and covered with soil. […] The plants were then cultured in a green house, and the evaluation of the herbicidal effects and phytotoxicity was conducted on the 21st day after the application in accordance with the standards as identified in Table 47. Symbol—represents “not tested”.

slender amaranth (Am) [7] = assay: Test Example 3: herbicidal effects by upland field foliage treatment; format: in vivo; parameters: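 grade of growth control; 5 = at least 90%; 4 = 70 to 90%; 3 = 50 to 70%; 2 = 30 to 50%; 1 = 10 to 30%; 0 = under 10%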
How it was run: (§5)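 Test plants had been raised from seed for 2 weeks in a greenhouse, in soil-covered sand pots of 120 cm^2, and were returned there after spraying.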

Diaitaria ciliaris (Di) = assay: as above; format: in vivo; parameters: scale not given here
How it was run: as §5

[8] = tested on: common lambsquarters (Ch); assay: as above; format: in vivo; parameters: scale not given here
How it was run: as §5

pale smartweed (Po) [9] = assay: as above; format: in vivo; parameters: scale not given here
How it was run: as §5

rice flatsedge (Ci) [10] = assay: as above; format: in vivo; parameters: scale not given here
How it was run: as §5

barnyardgrass (Ec) [11] = assay: as above; format: in vivo; parameters: scale not given here
How it was run: as §5

China jute (Ab) [12] = assay: Test Example 6: crop plant selectivity by upland field soil treatment (soybean), herbicidal effects; format: in vivo; parameters: scale not given here; details: dose 6.3 g ai/10a, 21st day after application
Procedure: as §2, §3

slender amaranth (Am) [13] = assay: as above; format: in vivo; parameters: scale not given here; details: dose 6.3 g ai/10a, 21st day after application
Procedure: as §2, §3

[14] = tested on: common lambsquarters (Ch); assay: as above; format: in vivo; parameters: scale not given here; details: dose 6.3 g ai/10a, 21st day after application
Procedure: as §2, §3

pale smartweed (Po) [15] = assay: as above; format: in vivo; parameters: scale not given here; details: dose 6.3 g ai/10a, 21st day after application
Procedure: as §2, §3

green foxtail (Se) [16] = assay: as above; format: in vivo; parameters: scale not given here; details: dose 6.3 g ai/10a, 21st day after application
Procedure: as §2, §3

China jute (Ab) [17] = assay: Test Example 4: crop plant selectivity by upland field soil treatment (cotton), herbicidal effects; format: in vivo; parameters: scale not given here; details: dose 6.3 g ai/10 a, evaluated 21st day after application
Procedure: as §2
(§6) In a plastic pot (surface area: 600 cm^2) filled with sand, cotton (Go), Diaitaria ciliaris (Di), green foxtail (Se), pale smartweed (Po), slender amaranth (Am), common lambsquarters (Ch) and China jute (Ab) were sown and covered with soil. […] The plants were then cultured in a green house, and the evaluation of the herbicidal effects and phytotoxicity was conducted on the 21st day after the application in accordance with the standards as identified in Table 47. Symbol—represents “not tested”.

slender amaranth (Am) [18] = assay: as above; format: in vivo; parameters: scale not given here; details: dose 6.3 g ai/10 a, evaluated 21st day after application
Procedure: as §2, §6

[19] = tested on: common lambsquarters (Ch); assay: as above; format: in vivo; parameters: scale not given here; details: dose 6.3 g ai/10 a, evaluated 21st day after application
Procedure: as §2, §6

pale smartweed (Po) [20] = assay: as above; format: in vivo; parameters: scale not given here; details: dose 6.3 g ai/10 a, evaluated 21st day after application
Procedure: as §2, §6

green foxtail (Se) [21] = assay: as above; format: in vivo; parameters: scale not given here; details: dose 6.3 g ai/10 a, evaluated 21st day after application
Procedure: as §2, §6

cotton (Go) = assay: Test Example 4: crop plant selectivity by upland field soil treatment (cotton), phytotoxicity; format: in vivo; parameters: scale not given here; details: dose 6.3 g ai/10 a, evaluated 21st day after application
Procedure: as §2, §6

monochoria (Mo) = assay: Test Example 1: herbicidal effects by paddy field soil treatment; format: in vivo; details: 100 g of the active ingredient per 10 ares, 21st day after the application, index 0-5 of Table 47;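 note: grade of growth control; 5 = at least 90%; 4 = 70 to 90%; 3 = 50 to 70%; 2 = 30 to 50%; 1 = 10 to 30%; 0 = under 10%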
How it was run: (§7)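 Scoring of herbicidal effect came 21 days after application of 100 g active ingredient per 10 ares to flooded (3 cm) paddy-soil pots sown with barnyardgrass, monochoria and bulrush, kept in a greenhouse.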

barnyardgrass (Ec) [22] = assay: as above; format: in vivo; details: 100 g of the active ingredient per 10 ares, 21st day after the application, index 0-5 of Table 47
How it was run: as §7

bulrush (Sc) = assay: as above; format: in vivo; details: 100 g of the active ingredient per 10 ares, 21st day after the application, index 0-5 of Table 47;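 note: grade of growth control; 5 = at least 90%; 4 = 70 to 90%; 3 = 50 to 70%; 2 = 30 to 50%; 1 = 10 to 30%; 0 = under 10%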
How it was run: as §7

China jute (Ab) [23] = assay: Test Example 5: crop plant selectivity by upland field soil treatment (wheat), herbicidal effects; format: in vivo; parameters: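 grade of growth control; 5 = at least 90%; 4 = 70 to 90%; 3 = 50 to 70%; 2 = 30 to 50%; 1 = 10 to 30%; 0 = under 10%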; details: dose 6.3 g ai/10a, 21st day after application
Procedure: as §2, §4

slender amaranth (Am) [24] = assay: as above; format: in vivo; parameters: scale not given here; details: dose 6.3 g ai/10a, 21st day after application
Procedure: as §2, §4

[25] = tested on: common lambsquarters (Ch); assay: as above; format: in vivo; parameters: scale not given here; details: dose 6.3 g ai/10a, 21st day after application
Procedure: as §2, §4

pale smartweed (Po) [26] = assay: as above; format: in vivo; parameters: scale not given here; details: dose 6.3 g ai/10a, 21st day after application
Procedure: as §2, §4

green foxtail (Se) [27] = assay: as above; format: in vivo; parameters: scale not given here; details: dose 6.3 g ai/10a, 21st day after application
Procedure: as §2, §4

China jute (Ab) [28] = assay: Test Example 9: crop plant selectivity by upland field foliage treatment (wheat), herbicidal effects; format: in vivo; parameters: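 grade of growth control; 5 = at least 90%; 4 = 70 to 90%; 3 = 50 to 70%; 2 = 30 to 50%; 1 = 10 to 30%; 0 = under 10%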; details: dose 1.6 g ai/10a, 14th day after treatment
Procedure: (§8) (Test on Crop Plant Selectivity by Upland Field Foliage Treatment)
(§9) In a plastic pot (surface area: 600 cm^2) filled with sand, wheat (Tr), pale smartweed (Po), slender amaranth (Am), common lambsquarters (Ch) and China jute (Ab) were sown and cultured in a green house for 2 weeks. […] The plants were then cultured in a green house, and the evaluation of the herbicidal effects and phytotoxicity was conducted on the 14th day after the treatment in accordance with the standards as identified in Table 47.

slender amaranth (Am) [29] = assay: as above; format: in vivo; parameters: scale not given here; details: dose 1.6 g ai/10a, 14th day after treatment
Procedure: as §8, §9

[30] = tested on: common lambsquarters (Ch); assay: as above; format: in vivo; parameters: scale not given here; details: dose 1.6 g ai/10a, 14th day after treatment
Procedure: as §8, §9

pale smartweed (Po) [31] = assay: as above; format: in vivo; parameters: scale not given here; details: dose 1.6 g ai/10a, 14th day after treatment
Procedure: as §8, §9

wheat (Tr) [32] = assay: Test Example 9: crop plant selectivity by upland field foliage treatment (wheat), phytotoxicity; details: dose 1.6 g ai/10a, 14th day after treatment;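 note: grade of crop injury; 5 = at least 90%; 4 = 70 to 90%; 3 = 50 to 70%; 2 = 30 to 50%; 1 = 10 to 30%; 0 = under 10%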
Procedure: as §8, §9

[33] = 21st day after the application, index 0-5 of Table 47
[34] = 100 g of the active ingredient per 10 ares, evaluated on the 14th day after treatment
[35] = evaluated on the 21st day after application
[36] = 100 g active ingredient per 10 ares, evaluated 14th day after treatment

Row | SMILES | Phytotoxicity Gl (soybean (Gl)) | Phytotoxicity Tr (wheat (Tr) [6]) | Herbicidal effects Ab (China jute (Ab) [12]) | Herbicidal effects Am (slender amaranth (Am) [13]) | Herbicidal effects Ch [14] | Herbicidal effects Po (pale smartweed (Po) [15]) | Herbicidal effects Se (green foxtail (Se) [16]) | Herbicidal effects Ab (China jute (Ab) [17]) | Herbicidal effects Am (slender amaranth (Am) [18]) | Herbicidal effects Ch [19] | Herbicidal effects Po (pale smartweed (Po) [20]) | Herbicidal effects Se (green foxtail (Se) [21]) | Phytotoxicity Go (cotton (Go)) | Herbicidal effects Mo (monochoria (Mo)) | Herbicidal effects Ec (barnyardgrass (Ec) [22]) | Herbicidal effects Sc (bulrush (Sc)) | Herbicidal effects Ab (China jute (Ab) [23]) | Herbicidal effects Am (slender amaranth (Am) [24]) | Herbicidal effects Ch [25] | Herbicidal effects Po (pale smartweed (Po) [26]) | also measured
1 | C=C(C)COc1cc(-c2ccc(C(F)(F)F)n(C)c2=O)c(F)cc1Cl [1-151] | 0 | 2 | 5 | 5 | 5 | 5 | 5 | 5 | 5 | 5 | 5 | 5 | 1 | 5 | 5 | 5 | 5 | 5 | 5 | 5 | Herbicidal effects Di (Digitaria ciliaris (Di); [33]): 5; Herbicidal effects Am (slender amaranth (Am) [1]; [33]): 5; Herbicidal effects Ch [2, 33]: 5; Herbicidal effects Po (pale smartweed (Po) [3]; [33]): 5; Herbicidal effects Ci (rice flatsedge (Ci) [4]; [33]): 5; Herbicidal effects Ec (barnyardgrass (Ec) [5]; [33]): 5; Herbicidal effects Am (slender amaranth (Am) [7]; [34]): 5; Herbicidal effects Di (Diaitaria ciliaris (Di); [34]): 5; Herbicidal effects Ch [8, 34]: 5; Herbicidal effects Po (pale smartweed (Po) [9]; [34]): 5; Herbicidal effects Ci (rice flatsedge (Ci) [10]; [34]): 5; Herbicidal effects Ec (barnyardgrass (Ec) [11]; [34]): 5; Herbicidal effects Se (green foxtail (Se) [27]): 5
2 | CCN1C(=O)COc2cc(F)c(-c3ccc(C(F)(F)F)n(C)c3=O)cc21 [Compound 2-15] | 1 | 1 | 5 | 5 | 5 | 5 | 5 | 5 | 5 | 5 | 5 | 5 | 0 | 5 | 5 | 5 | 5 | 5 | 5 | 5 | Herbicidal effects Di (Digitaria ciliaris (Di); [35]): 5; Herbicidal effects Am (slender amaranth (Am) [1]; [35]): 5; Herbicidal effects Ch [2, 35]: 5; Herbicidal effects Po (pale smartweed (Po) [3]; [35]): 5; Herbicidal effects Ci (rice flatsedge (Ci) [4]; [35]): 5; Herbicidal effects Ec (barnyardgrass (Ec) [5]; [35]): 5; Herbicidal effects Ab (China jute (Ab) [28]): 5; Herbicidal effects Am (slender amaranth (Am) [29]): 5; Herbicidal effects Ch [30]: 5; Herbicidal effects Po (pale smartweed (Po) [31]): 5; Herbicidal effects Am (slender amaranth (Am) [7]; [36]): 5; Herbicidal effects Di (Diaitaria ciliaris (Di); [36]): 5; Herbicidal effects Ch [8, 36]: 5; Herbicidal effects Po (pale smartweed (Po) [9]; [36]): 5; Herbicidal effects Ci (rice flatsedge (Ci) [10]; [36]): 5; Herbicidal effects Ec (barnyardgrass (Ec) [11]; [36]): 5; Phytotoxicity Tr (wheat (Tr) [32]): 2; Herbicidal effects Se (green foxtail (Se) [27]): 5
